This is an account of results in ChEMBL document CHEMBL5346863, “Discovery of substituted benzyloxy-benzylamine inhibitors of acetyltransferase Eis and their anti-mycobacterial activity” (Eur J Med Chem, 2022).

The subject of series [1] is Mycobacterium tuberculosis. The series is described as follows: Antibacterial activity against Mycobacterium tuberculosis K204 assessed as MIC of kanamycin A at 97.9 uM incubated for 24 hrs followed by kanamycin A addition measured after 6 days by alamarblue dye based assay. Type of series: functional, organism-based. To be noted: time 7.0 day. Background: The colour change of resazurin is a common sign of viable cells or microbes.

For series [2], the system named is Mycobacterium tuberculosis. The series is described as follows: Antibacterial activity against Mycobacterium tuberculosis H37Ra assessed as bacterial growth inhibition incubated 2 to 3 weeks by resazurin dye based assay. Type of series: functional. Particulars: time 2-3 weeks.
Series [3] has as its system Mycobacterium tuberculosis. Briefly: Antibacterial activity against Mycobacterium tuberculosis H37Rv assessed as MIC of kanamycin A at 97.9 uM incubated for 24 hrs followed by kanamycin A addition measured after 6 days by alamarblue dye based assay. Type of series: functional, organism-based. Particulars: time 7.0 day.
The subject of series [4] is Mycobacterium tuberculosis. The series is described as follows: Antibacterial activity against Mycobacterium tuberculosis mc2 6230 assessed as MIC of kanamycin A at 25 uM incubated for 24 hrs followed by kanamycin A addition measured after 6 days by alamarblue dye based assay. Type of series: functional. Particulars: mc2 6230, 168 h, time 7 day.
The target of series [5] is T1, N-acetyltransferase Eis (Mycobacterium tuberculosis (strain ATCC 25618 / H37Rv), UniProt P9WFK7).
T1 sequence (P9WFK7 whole entry): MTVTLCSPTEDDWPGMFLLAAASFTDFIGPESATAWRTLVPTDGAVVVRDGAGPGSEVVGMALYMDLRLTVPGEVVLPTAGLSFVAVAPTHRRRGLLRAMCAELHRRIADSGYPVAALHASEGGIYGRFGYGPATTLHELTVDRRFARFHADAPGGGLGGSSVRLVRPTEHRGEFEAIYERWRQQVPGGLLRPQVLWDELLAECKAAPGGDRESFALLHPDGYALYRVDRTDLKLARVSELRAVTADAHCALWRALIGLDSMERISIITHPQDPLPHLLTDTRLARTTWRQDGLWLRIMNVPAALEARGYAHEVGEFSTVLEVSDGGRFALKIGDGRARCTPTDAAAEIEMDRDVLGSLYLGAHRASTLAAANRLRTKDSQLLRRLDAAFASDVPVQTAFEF
Briefly: Binding affinity to wild-type Mycobacterium tuberculosis Eis expressed in Escherichia coli BL21(DE3) cells assessed as inhibition constant incubated for 5 mins by Ellman's method based Michaelis-Menten analysis. On the technique in general: In Ellman's method for cholinesterases, released thiocholine reacts with DTNB.

Series [6] has as its system HEK293. The series is described as follows: Cytotoxicity against HEK293 cells upto 12.5 uM incubated for 24 hrs by resazurin dye based cell viability assay. Type of series: toxicity. To be noted: human, hek293, 24 h.
The test system of series [7] is A549. The series is described as follows: Cytotoxicity against human A549 cells upto 12.5 uM incubated for 24 hrs by resazurin dye based cell viability assay. The series is classed as toxicity. Particulars: a549, 24 h.
The target in series [8] is T1, N-acetyltransferase Eis. The series is described as follows: Inhibition of wild-type Mycobacterium tuberculosis Eis expressed in Escherichia coli BL21(DE3) cells incubated for 5 mins by Ellman's method.
In series [9] the test system is Mycobacterium tuberculosis. Briefly: Antibacterial activity against Mycobacterium tuberculosis mc2 6230 K204 assessed as MIC of kanamycin A at 25 uM incubated for 24 hrs followed by kanamycin A addition measured after 6 days by alamarblue dye based assay. The series is classed as functional. To be noted: Mycobacterium tuberculosis, mc2 6230 K204, 168 h, time 7 day, read-out: MIC.

Series [10] concerns Mycobacteroides abscessus. Briefly: Antibacterial activity against Mycobacterium abscessus ATCC 19977 assessed as bacterial growth inhibition incubated for 2 to 3 weeks by resazurin dye based assay. The series is classed as functional. Particulars: time 2-3 weeks.
The test system of a further series is Mycobacterium avium. Briefly: Antibacterial activity against Mycobacterium avium ATCC 25291 assessed as bacterial growth inhibition incubated for 2 to 3 weeks by resazurin dye based assay. Type of series: functional. To be noted: time 2-3 weeks.
In series [11] the test system is A549. The series is described as follows: Cytotoxicity against human A549 cells >=50 uM incubated for 24 hrs by resazurin dye based cell viability assay. Particulars: a549, 24 h. The series is classed as toxicity.
Series [12] concerns J774.1. The series is described as follows: Cytotoxicity against mouse J774.1 cells upto 12.5 uM incubated for 24 hrs by resazurin dye based cell viability assay. The series is classed as toxicity. Particulars: j774.1, 24 h.
The subject of series [13] is Mycolicibacterium smegmatis. The series is described as follows: Antibacterial activity against Mycobacterium smegmatis mc2 122 assessed as bacterial growth inhibition incubated for 2 to 3 weeks by resazurin dye based assay. Particulars: time 2-3 weeks. Type of series: functional.
For series [14], the system named is Mycobacterium tuberculosis. The series is described as follows: Antibacterial activity against Mycobacterium tuberculosis mc2 6230 assessed as bacterial growth inhibition incubated 2 to 3 weeks by resazurin dye based assay. Type of series: functional. To be noted: time 2-3 weeks.
Series [15] relates to Mycobacterium tuberculosis. Briefly: Antibacterial activity against Mycobacterium tuberculosis H37Rv assessed as MIC of kanamycin A at 100 uM incubated for 24 hrs followed by kanamycin A addition measured after 6 days by alamarblue dye based assay. Type of series: functional. To be noted: time 7.0 day.
Series [16] deals with HEK293. The series is described as follows: Cytotoxicity against HEK293 cells at 200 uM incubated for 24 hrs by resazurin dye based cell viability assay. The series is classed as toxicity. Particulars: human, hek293, 24 h.
Series [17] has as its system Mycobacterium intracellulare. The series is described as follows: Antibacterial activity against Mycobacterium intracellulare ATCC 13950 assessed as bacterial growth inhibition incubated for 2 to 3 weeks by resazurin dye based assay. Type of series: functional. To be noted: time 2-3 weeks.
Series [18] deals with Mycobacterium tuberculosis. The series is described as follows: Antibacterial activity against Mycobacterium tuberculosis K204 assessed as MIC of kanamycin A at 106 uM incubated for 24 hrs followed by kanamycin A addition measured after 6 days by alamarblue dye based assay. Particulars: time 7.0 day. The series is classed as functional, organism-based.
In series [19] the test system is Mycobacterium tuberculosis. The series is described as follows: Antibacterial activity against Mycobacterium tuberculosis H37Rv assessed as MIC of kanamycin A at 106 uM incubated for 24 hrs followed by kanamycin A addition measured after 6 days by alamarblue dye based assay. Type of series: functional, organism-based. To be noted: time 7.0 day.
Series [20] has as its system A549. Briefly: Cytotoxicity against human A549 cells at 200 uM incubated for 24 hrs by resazurin dye based cell viability assay. To be noted: a549, 24 h. Type of series: toxicity.
In series [21] the test system is J774.1. The series is described as follows: Cytotoxicity against mouse J774.1 cells at 200 uM incubated for 24 hrs by resazurin dye based cell viability assay. Particulars: j774.1, 24 h. Type of series: toxicity.
Series [22] has as its system Mycobacterium parascrofulaceum. The series is described as follows: Antibacterial activity against Mycobacterium parascrofulaceum ATCC BAA-614 assessed as bacterial growth inhibition incubated for 2 to 3 weeks by resazurin dye based assay. Type of series: functional. Particulars: time 2-3 weeks.
The subject of series [23] is Mycobacterium tuberculosis. Briefly: Antibacterial activity against Mycobacterium tuberculosis mc2 6230 K204 assessed as MIC of kanamycin A at 6.25 uM incubated for 24 hrs followed by kanamycin A addition measured after 6 days by alamarblue dye based assay. The series is classed as functional. To be noted: mc2 6230 K204, 168 h, time 7 day.
The subject of series [24] is Mycobacterium tuberculosis. Briefly: Antibacterial activity against Mycobacterium tuberculosis mc2 6230 assessed as MIC of kanamycin A at 6.25 uM incubated for 24 hrs followed by kanamycin A addition measured after 6 days by alamarblue dye based assay. The series is classed as functional. Particulars: mc2 6230, 168 h, time 7 day.
In series [25] the test system is HEK293. The series is described as follows: Cytotoxicity against HEK293 cells <=50 uM incubated for 24 hrs by resazurin dye based cell viability assay. Type of series: toxicity. Particulars: human, hek293, 24 h.
Series [26] relates to A549. Briefly: Cytotoxicity against human A549 cells upto 50 uM incubated for 24 hrs by resazurin dye based cell viability assay. Type of series: toxicity. Particulars: a549, 24 h.
Series [27] deals with J774.1. The series is described as follows: Cytotoxicity against mouse J774.1 cells <=50 uM incubated for 24 hrs by resazurin dye based cell viability assay. Type of series: toxicity. To be noted: j774.1, 24 h.

Values after ≈ are worked out from the molar mass of the structure shown. Active and inactive are the calls of the source. The rule behind the calls is not given here.

For the compound `Clc1ccc(COc2ccccc2CNCc2cccnc2)cc1`, the result in series [1], in series [3] and in series [15] was Active. The MIC in series [2] is 62.5 µM (≈ 21.2 µg/mL); in [4], under 1.25 µM; in series [9] it was over 10 µM; in series [10], over 62.5 µM; with Mycobacterium avium, over 62.5 µM; in series [13] it was 62.5 µM (≈ 21.2 µg/mL). In addition, the MIC in series [14] turned out to be 50 µM (≈ 16.9 µg/mL). The Ki at N-acetyltransferase Eis [5] is 1.16 µM. In addition, the Activity entry in the series on HEK293 [6] is on record as “Non-Toxic”; in the series on A549 [7], “Non-Toxic”; with A549 [11], “Toxic”; in the series on J774.1 [12], “Non-Toxic”. On N-acetyltransferase Eis [8], this compound showed an IC50 of 2 µM.
As for `Clc1ccc(COc2ccc(CNCc3ccncc3)cc2)cc1`, the minimal inhibitory concentration (MIC) in series [2] was 3.9 µM (≈ 1.32 µg/mL); in series [10], 62.5 µM (≈ 21.2 µg/mL); with Mycobacterium avium, over 62.5 µM; in series [17], 2 µM (≈ 0.678 µg/mL); in [14], 25 µM (≈ 8.47 µg/mL). In addition, the Activity entry with HEK293 [16] is “Toxic”; with HEK293 [6], “Non-Toxic”; in the series with A549 [7], “Non-Toxic”; with J774.1 [12] it was “Non-Toxic”; in the series on A549 [20], “Toxic”; in the series with J774.1 [21], “Toxic”. The same compound displayed an IC50 against N-acetyltransferase Eis [8] of 2 µM. Moreover, the outcome in [18], in series [19] and in series [15] was Active.
For `Clc1ccc(COc2ccc(CNCc3ccccc3)cc2)cc1`, the minimal inhibitory concentration (MIC) in [22] is 15.6 µM (≈ 5.27 µg/mL); in series [2], 3.9 µM (≈ 1.32 µg/mL); in series [23], under 1.25 µM; in series [24] it was under 1.25 µM; in series [10], 31.3 µM (≈ 10.6 µg/mL); in the series on Mycobacterium avium, 62.5 µM (≈ 21.1 µg/mL). Also, the minimum inhibitory concentration (MIC) in [13] was found to be 15.6 µM (≈ 5.27 µg/mL); in [14], 12.5 µM (≈ 4.22 µg/mL). The Activity result with HEK293 [6], with A549 [7], with HEK293 [25], with J774.1 [12], with A549 [26] and with J774.1 [27] was “Non-Toxic” each time. The compound further had an IC50 on N-acetyltransferase Eis [8] of over 200 µM. Moreover, the outcome in [15] was Active.

In general, MIC refers to the least concentration at which growth counts as inhibited. The Ki is a measure of affinity in units of concentration, obtained from inhibition or displacement. In general, IC50 refers to the midpoint of a concentration-inhibition curve. A lower IC50 goes with inhibition by little substance.
